From article PMC9481151, “Discovery of new symmetrical and asymmetrical nitrile-containing 1,4-dihydropyridine derivatives as dual kinases and P-glycoprotein inhibitors: synthesis, in vitro assays, and in silico studies” (Journal of Enzyme Inhibition and Medicinal Chemistry, 2022)

Tests used:
HCC-2998 = assay: NCI single dose (10 µM) SRB screen; format: cell-based, human; conditions: colon cancer, 48 h
SF-295 = assay: NCI single dose (10 µM) SRB screen; format: cell-based, human; conditions: CNS cancer, 48 h
BT-549 = assay: NCI single dose (10 µM) SRB screen; format: cell-based, human; conditions: breast cancer, 48 h
Staphylococcus aureus = assay: Agar well diffusion method
MDA-MB-468 = assay: NCI single dose (10 µM) SRB screen; format: cell-based, human; conditions: breast cancer, 48 h
NCI/ADR-RES = assay: NCI single dose (10 µM) SRB screen; format: cell-based, human; conditions: ovarian cancer, 48 h
RPMI-8226 = assay: NCI single dose (10 µM) SRB screen; format: cell-based, human; conditions: leukaemia, 48 h
SR = assay: NCI single dose (10 µM) SRB screen; format: cell-based, human; conditions: leukaemia, 48 h
CCRF-CEM = assay: NCI single dose (10 µM) SRB screen; format: cell-based, human; conditions: leukaemia, 48 h
OVCAR-8 = assay: NCI single dose (10 µM) SRB screen; format: cell-based, human; conditions: ovarian cancer, 48 h
UO-31 = assay: NCI single dose (10 µM) SRB screen; format: cell-based, human; conditions: renal cancer, 48 h
MCF7 = assay: NCI single dose (10 µM) SRB screen; format: cell-based, human; conditions: breast cancer, 48 h
DU-145 = assay: NCI single dose (10 µM) SRB screen; format: cell-based, human; conditions: prostate cancer, 48 h
SNB-75 = assay: NCI single dose (10 µM) SRB screen; format: cell-based, human; conditions: CNS cancer, 48 h
COLO 205 = assay: NCI single dose (10 µM) SRB screen; format: cell-based, human; conditions: colon cancer, 48 h
MOLT-4 = assay: NCI single dose (10 µM) SRB screen; format: cell-based, human; conditions: leukaemia, 48 h
K-562 = assay: NCI single dose (10 µM) SRB screen; format: cell-based, human; conditions: leukaemia, 48 h
HOP-62 = assay: NCI single dose (10 µM) SRB screen; format: cell-based, human; conditions: non-small cell lung cancer, 48 h
SF-539 = assay: NCI single dose (10 µM) SRB screen; format: cell-based, human; conditions: CNS cancer, 48 h
SW-620 = assay: NCI single dose (10 µM) SRB screen; format: cell-based, human; conditions: colon cancer, 48 h
NCI-H522 = assay: NCI single dose (10 µM) SRB screen; format: cell-based, human; conditions: non-small cell lung cancer, 48 h
UACC-257 = assay: NCI single dose (10 µM) SRB screen; format: cell-based, human; conditions: melanoma, 48 h
786-0 = assay: NCI single dose (10 µM) SRB screen; format: cell-based, human; conditions: renal cancer, 48 h
RXF 393 = assay: NCI single dose (10 µM) SRB screen; format: cell-based, human; conditions: renal cancer, 48 h
UACC-62 = assay: NCI single dose (10 µM) SRB screen; format: cell-based, human; conditions: melanoma, 48 h
SNB-19 = assay: NCI single dose (10 µM) SRB screen; format: cell-based, human; conditions: CNS cancer, 48 h
HOP-92 = assay: NCI single dose (10 µM) SRB screen; format: cell-based, human; conditions: non-small cell lung cancer, 48 h
NCI-H460 = assay: NCI single dose (10 µM) SRB screen; format: cell-based, human; conditions: non-small cell lung cancer, 48 h
Pseudomonas aeruginosa = assay: Agar well diffusion method
SK-OV-3 = assay: NCI single dose (10 µM) SRB screen; format: cell-based, human; conditions: ovarian cancer, 48 h
MALME-3M = assay: NCI single dose (10 µM) SRB screen; format: cell-based, human; conditions: melanoma, 48 h
LOX IMVI = assay: NCI single dose (10 µM) SRB screen; format: cell-based, human; conditions: melanoma, 48 h
MDA-MB-231 = assay: NCI single dose (10 µM) SRB screen; format: cell-based, human; conditions: breast cancer, 48 h
U251 = assay: NCI single dose (10 µM) SRB screen; format: cell-based, human; conditions: CNS cancer, 48 h
NCI-H322M = assay: NCI single dose (10 µM) SRB screen; format: cell-based; conditions: non-small cell lung cancer, 48 h
SN12C = assay: NCI single dose (10 µM) SRB screen; format: cell-based, human; conditions: renal cancer, 48 h
Bacillus subtilis = assay: Agar well diffusion method
OVCAR-3 = assay: NCI single dose (10 µM) SRB screen; format: cell-based, human; conditions: ovarian cancer, 48 h
HL-60(TB) = assay: NCI single dose (10 µM) SRB screen; format: cell-based, human; conditions: leukaemia, 48 h
HCT-116 = assay: NCI single dose (10 µM) SRB screen; format: cell-based, human; conditions: colon cancer, 48 h
OVCAR-4 = assay: NCI single dose (10 µM) SRB screen; format: cell-based, human; conditions: ovarian cancer, 48 h
T-47D = assay: NCI single dose (10 µM) SRB screen; format: cell-based, human; conditions: breast cancer, 48 h
MDA-MB-435 = assay: NCI single dose (10 µM) SRB screen; format: cell-based, human; conditions: melanoma, 48 h
M14 = assay: NCI single dose (10 µM) SRB screen; format: cell-based, human; conditions: melanoma, 48 h
SK-MEL-28 = assay: NCI single dose (10 µM) SRB screen; format: cell-based, human; conditions: melanoma, 48 h
EKVX = assay: NCI single dose (10 µM) SRB screen; format: cell-based, human; conditions: non-small cell lung cancer, 48 h
SF-268 = assay: NCI single dose (10 µM) SRB screen; format: cell-based, human; conditions: CNS cancer, 48 h
PC-3 = assay: NCI single dose (10 µM) SRB screen; format: cell-based, human; conditions: prostate cancer, 48 h
NCI-H23 = assay: NCI single dose (10 µM) SRB screen; format: cell-based, human; conditions: non-small cell lung cancer, 48 h
A549/ATCC = assay: NCI single dose (10 µM) SRB screen; format: cell-based, human; conditions: non-small cell lung cancer, 48 h
NCI 60 cancer cell lines = assay: NCI single dose (10 µM) SRB screen, mean over panel; format: cell-based, human; conditions: mean over 60 cell lines, 48 h
A498 = assay: NCI single dose (10 µM) SRB screen; format: cell-based, human; conditions: renal cancer, 48 h
HCT-15 = assay: NCI single dose (10 µM) SRB screen; format: cell-based, human; conditions: colon cancer, 48 h

In the case of `CC1=C(C(=O)OCc2ccccc2)C(c2cccc(C#N)c2)C(C(=O)OCc2ccccc2)=C(C)N1` [Compound 1g, Dibenzyl 4-(3-cyanophenyl)-2,6-dimethyl-1,4-dihydropyridine-3,5-dicarboxylate], the “GI% HCC-2998” value (HCC-2998) is reported as “– (Only GI% ≥ 10 are shown)”, the “GI% SF-295” value (SF-295) is reported as 56% and the “GI% BT-549” value (BT-549) is reported as “– (Only GI% ≥ 10 are shown)”. The zone of inhibition at 1000 µg/mL (Staphylococcus aureus; Staphylococcus aureus, 24 h, read-out: Diameter of inhibition zone, S. aureus) was 15 mm, the “% activity index, S. aureus” value (Staphylococcus aureus; relative to ciprofloxacin) was 62.5% and the “GI% MDA-MB-468” value (MDA-MB-468) was 62%. For the same compound, the “GI% NCI/ADR-RES” value (NCI/ADR-RES) was 45%, the “GI% RPMI-8226” value (RPMI-8226) was 65% and the “GI% SR” value (SR) was 57%. The “GI% CCRF-CEM” value (CCRF-CEM) was 54%, the “GI% OVCAR-8” value (OVCAR-8) was 41% and the “GI% UO-31” value (UO-31) was 34%. The “GI% MCF7” value (MCF7) was 53%, the “GI% DU-145” value (DU-145) was 26% and the “GI% SNB-75” value (SNB-75) was 23%. For the same compound, the “GI% COLO 205” value (COLO 205) was 47%, the “GI% MOLT-4” value (MOLT-4) was 68% and the “GI% K-562” value (K-562) was 69%. For the same compound, the “GI% HOP-62” value (HOP-62) was 10%, the “GI% SF-539” value (SF-539) was 35% and the “GI% SW-620” value (SW-620) was 65%. The “GI% NCI-H522” value (NCI-H522) was 46%, the “GI% UACC-257” value (UACC-257) was 36% and the “GI% 786-0” value (786-0) was 32%. For the same compound, the “GI% RXF 393” value (RXF 393) was 36%, the “GI% UACC-62” value (UACC-62) was 38% and the “GI% SNB-19” value (SNB-19) was 32%. For the same compound, the “GI% HOP-92” value (HOP-92) was 42%, the “GI% NCI-H460” value (NCI-H460) was 64% and the zone of inhibition at 1000 µg/mL (Pseudomonas aeruginosa; Pseudomonas aeruginosa, 24 h, read-out: Diameter of inhibition zone, P. aeruginosa) was 16 mm. The “% activity index, P. aeruginosa” value (Pseudomonas aeruginosa; relative to ciprofloxacin) was 69.6%, the “GI% SK-OV-3” value (SK-OV-3) was “– (Only GI% ≥ 10 are shown)” and the “GI% MALME-3M” value (MALME-3M) was 32%. The “GI% LOX IMVI” value (LOX IMVI) was 65%, the “GI% MDA-MB-231” value (MDA-MB-231) was 37% and the “GI% U251” value (U251) was 49%. The “GI% NCI-H322M” value (NCI-H322M) was 15%, the “GI% SN12C” value (SN12C) was 32% and the zone of inhibition at 1000 µg/mL (Bacillus subtilis; Bacillus subtilis, 24 h, read-out: Diameter of inhibition zone, B. subtilis) was 11 mm. The “% activity index, B. subtilis” value (Bacillus subtilis; relative to ciprofloxacin) was 47.8%, the “GI% OVCAR-3” value (OVCAR-3) was 23% and the “GI% HL-60(TB)” value (HL-60(TB)) was 62%. For the same compound, the “GI% HCT-116” value (HCT-116) was 76%, the “GI% OVCAR-4” value (OVCAR-4) was 33% and the “GI% T-47D” value (T-47D) was 53%. For the same compound, the “GI% MDA-MB-435” value (MDA-MB-435) was 36%, the “GI% M14” value (M14) was 35% and the “GI% SK-MEL-28” value (SK-MEL-28) was 34%. The “GI% EKVX” value (EKVX) was 50%, the “GI% SF-268” value (SF-268) was 38% and the “GI% PC-3” value (PC-3) was 76%. For the same compound, the “GI% NCI-H23” value (NCI-H23) was 23%, the “GI% A549/ATCC” value (A549/ATCC) was 45% and the “Mean GI%” value (NCI 60 cancer cell lines) was 41%. For the same compound, the “GI% A498” value (A498) was 21% and the “GI% HCT-15” value (HCT-15) was 72%.
